{"source": "patent US8535897B2", "about": "“Assays for non-apoptotic cell death and uses thereof” (The Trustees of Columbia University in the City of New York, priority 2006, dated 2013)", "key": {"EWS502": {"system": "EWS502", "test": "Response of tumor cell lines to erastin (dose-response)", "format": "cell-based", "conditions": "EWS 502", "procedure": "(§1) In certain aspects, the invention provides that erastin is lethal to tumor cells with activating mutations in proteins downstream of RAS proteins. Dose-response of 30 tumor cell lines to erastin was measured, and at least 50% inhibition of cell viability in 19 of the 30 tumor cell lines was formed. Numerous sarcoma-derived tumor cell lines were sensitive to erastin, consistent with the fact that erastin was discovered in an engineered tumor cell line created from human fibroblasts. Non-limiting examples include, HT1080 fibrosarcoma cells. HT1080 fibrosarcoma cells, which have a known activating mutation in NRAS, (Plattner, R. et al. Differential contribution of the ERK and JNK mitogen-activated protein kinase cascades to Ras transformation of HT1080 fibrosarcoma and DLD-1 colon carcinoma cells. Oncogene. 18: 1807-17 (1999), were quite sensitive to erastin. In order to determine whether RAS-activated signaling was modulated in cell lines that respond to erastin, the phosphorylation status of ERK1/2 in 12 sarcoma cell lines with a range of sensitivities to erastin was evaluated. In certain aspects, the invention provides a non-zero correlation, such as for example, a correlation coefficient of 0.41, between ERK1/2 phosphorylation status and erastin sensitivity in these cell lines.\n(§2) Given that oncogenic RAS activates at least four downstream pathways, analysis was performed to identify which downstream effects were necessary for erastin sensitivity. In certain embodiments, the invention provides that erastin inhibits growth and kills genuine tumor cells with RAS mutations. In other embodiments, the invention provides measures of the dose-response of 29 tumor cell lines to erastin, wherein there is at least 50% inhibition of viability in 18 of the cell lines (Table 4). Numerous sarcoma-derived tumor cell lines were sensitive to erastin, consistent with the fact that erastin was discovered in an engineered tumor cell line created from human fibroblasts."}, "SK-ES-1": {"system": "SK-ES-1", "test": "Response of tumor cell lines to erastin (dose-response)", "format": "cell-based", "conditions": "SICES1", "procedure": "as §1, §2"}, "SW872": {"system": "SW872", "test": "Response of tumor cell lines to erastin (dose-response)", "format": "cell-based", "conditions": "SW 872", "procedure": "as §1, §2"}, "U973": {"system": "U973", "test": "Response of tumor cell lines to erastin (dose-response)", "format": "cell-based", "conditions": "U937", "procedure": "as §1, §2"}, "TC32": {"system": "TC32", "test": "Response of tumor cell lines to erastin (dose-response)", "format": "cell-based", "conditions": "TC 32", "procedure": "as §1, §2"}, "TC71": {"system": "TC71", "test": "Response of tumor cell lines to erastin (dose-response)", "format": "cell-based", "conditions": "TC 71", "procedure": "as §1, §2"}, "SK-N-MC": {"system": "SK-N-MC", "test": "Response of tumor cell lines to erastin (dose-response)", "format": "cell-based", "procedure": "as §1, §2"}, "HL-60": {"system": "HL-60", "test": "Response of tumor cell lines to erastin (dose-response)", "format": "cell-based", "procedure": "as §1, §2"}, "VDAC3": {"system": "VDAC3", "test": "VDAC isoform levels after erastin treatment (quantitative 2D western)", "format": "cell-based, human", "conditions": "BJ-TERT/LT/ST/RASV12 cells", "from_the_text": "(§3) (a) Quantitative western blot of VDAC/eif4E protein ratio in engineered BJ-derived cells. (b) Identification of VDAC isoforms in BJ-TERT/LT/ST/RAS^V12 cells using 2-D electrophoresis. i) VDAC1, VDAC2 and VDAC3 were detected by a rabbit polyclonal VDAC antibody (Abcam/ab3434), ii) VDAC1 was detected by a mouse monoclonal VDAC1 antibody (Calbiochem/529534), iii) VDAC2 was detected by a goat polyclonal VDAC2 antibody (Abcam/ab22170), iv) An illustration of 3 isoforms of VDAC separated by the 2-D gel electrophoresis. (c) BJ-TERT/LT/ST/RASV12 cells were treated with erastin for the indicated time and levels of each VDAC isoform determined by quantitative 2D western. (d,e) Infection with VDAC3 shRNA protects erastin-treated cells. 293T cells were transfected with shRNA-plasmid construct using FuGene and viral supernatant transferred to HT1080 cells, and treated with erastin dilutions and viability measured using Trypan Blue exclusion. […] (f) Quantitative RT-PCR measurements of mRNA levels of the 3 VDAC isoforms after infection with shVDAC3. Knockdown was determined by normalizing to the levels in the shGFP-infected control. […] (g) Mitochondria were purified from yeast expressing murine VDAC3 in place of yeast VDAC, and the rate of NADH uptake determined in the presence or absence of erastin, or in shocked mitochondria in which the outer membrane was disrupted. […]"}, "VDAC2": {"system": "VDAC2", "test": "VDAC isoform levels after erastin treatment (quantitative 2D western)", "format": "cell-based, human", "conditions": "BJ-TERT/LT/ST/RASV12 cells", "from_the_text": "as §3"}}}
{"smiles": "CCOc1ccccc1-n1c(C(C)N2CCN(C(=O)COc3ccc(Cl)cc3)CC2)nc2ccccc2c1=O", "note": "(stereo not shown) [erastin]", "values": [{"measurement": "Erastin Sensitivity (maximum killing induced by erastin)", "setting": "EWS502", "result": 0.42}, {"measurement": "Erastin Sensitivity (maximum killing induced by erastin)", "setting": "SK-ES-1", "result": 0.96}, {"measurement": "Erastin Sensitivity (maximum killing induced by erastin)", "setting": "SW872", "result": 0.00}, {"measurement": "Erastin Sensitivity (maximum killing induced by erastin)", "setting": "U973", "result": 0.73}, {"measurement": "Erastin Sensitivity (maximum killing induced by erastin)", "setting": "TC32", "result": 0.88}, {"measurement": "Erastin Sensitivity (maximum killing induced by erastin)", "setting": "TC71", "result": 0.92}, {"measurement": "Erastin Sensitivity (maximum killing induced by erastin)", "setting": "SK-N-MC", "result": 0.95}, {"measurement": "Erastin Sensitivity (maximum killing induced by erastin)", "setting": "HL-60", "result": 0.00}, {"measurement": "treatment time after which VDAC3 was no longer detectable", "setting": "VDAC3", "result": 8, "unit": "h"}, {"measurement": "treatment time after which VDAC2 became undetectable", "setting": "VDAC2", "result": 10, "unit": "h"}]}
